Earlier results as cited in patent US6423864B1, “Purification of N-[N-(3,3-dimethylbutyl)-L-α-aspartyl]-L-phenylalanine 1-methyl ester via crystallization” (The NutraSweet Company, priority 1998, dated 2002).

Details: relative to sucrose; background statement

For COC(=O)[C@H](Cc1ccccc1)NC(=O)[C@H](CC(=O)O)NCCC(C)(C)C [neotame, N-[N-(3,3-dimethylbutyl)-L-α-aspartyl]-L-phenylalanine 1-methyl ester], the “sweetness potency (sweeter than sucrose)” value is given as “about 8000 ×”.
